In PMC8570331, “8-Hydroxyquinoline-Amino Acid Hybrids and Their Half-Sandwich Rh and Ru Complexes: Synthesis, Anticancer Activities, Solution Chemistry and Interaction with Biomolecules” (International Journal of Molecular Sciences, 2021):

What was measured:
[1] = test system: MRC-5 human lung fibroblast cell line; test: MTT cytotoxicity assay in MRC-5; format: cell-based
Method: (§1) The in vitro cytotoxic activity of the novel water-soluble amino acid derivatives of HQCl and their RhCp* and RuCym complexes was measured by the thiazolyl blue tetrazolium bromide (MTT) assay in two human colon adenocarcinoma cell lines (Colo-205 and Colo-320) and in one non-tumoral human lung fibroblast cell line (MRC-5). The results are given in terms of IC50 values (Table 1). Colo-205 is a drug-sensitive cell line with a normal ABCB1 transporter expression pattern, while Colo-320 is multidrug-resistant and overexpresses the ABCB1 system.
(§2) All cell culture reagents were obtained from Sigma-Aldrich and plasticware from Sarstedt (Nümbrecht, Germany). Human colonic Colo-205 doxorubicin-sensitive and Colo-320/MDR-LRP multidrug-resistant adenocarcinoma and MRC-5 human embryonal lung fibroblast cell lines were purchased from LGC Promochem, Teddington, UK. The colonic adenocarcinoma cells were cultured in Roswell Park Memorial Institute (RPMI) 1640 medium supplemented with 10% heat-inactivated fetal bovine serum, 2 mM L-glutamine, 1 mM sodium pyruvate and […]. The MRC-5 cell line was cultured in Eagle’s Minimal Essential Medium (EMEM, Sigma-Aldrich, St. Louis, MO, USA) supplemented with a non-essential amino acid (NEAA) mixture (Sigma-Aldrich, St. Louis, MO, USA) a selection of vitamins, 10% heat-inactivated foetal bovine serum (FBS), 2 mM L-glutamine (Sigma-Aldrich, St. Louis, MO, USA), 1 mM Na-pyruvate (Sigma-Aldrich, St. Louis, MO, USA), nystatin (Sigma-Aldrich, St. Louis, MO, USA) and a penicillin-streptomycin mixture (Sigma-Aldrich, St. Louis, MO, USA) in con-centrations of 100 U/L and 10 mg/L, respectively. The cells were incubated at 37 °C, in a 5% CO2, 95% air atmosphere. All cell lines were detached with Trypsin-Versene (EDTA) solution for 5 min at 37 °C.
(§3) The tested compounds were dissolved in 10% (v/v) DMSO/H2O using 4 mM concentration. Doxorubicin (Merck, Darmstadt, Germany) was used as a positive control. Then stock solutions were diluted in complete culture medium, and two-fold serial dilutions of compounds were prepared in 100 μL of the medium, horizontally. The semi-adherent colonic adenocarcinoma cells were treated with Trypsin-Versene (EDTA) solution. They were adjusted to a density of 1 × 10^4 cells in 100 μL of RPMI 1640 or EMEM medium and were added to each well, with the exception of the medium control wells. The final volume of the wells containing compounds and cells was 200 μL. The plates containing Colo-205, Colo-320 or MRC-5 cells were incubated at 37 °C for 72 h; at the end of the incubation period, 20 μL of MTT solution (from a stock solution of 5 mg/mL) were added to each well. After incubation at 37 °C for 4 h, 100 μL of SDS solution (10% in 0.01 M HCI) were added to each well, and the plates were further incubated at 37 °C overnight. […] The IC50 values were obtained from at least 3 independent experiments.

[2] = test system: Colo-320 human colon adenocarcinoma cell line (multidrug-resistant); test: MTT cytotoxicity assay in Colo-320; format: cell-based; conditions: 72 h incubation
Method: as §1, §2, §3

[3] = Rate of complex formation followed by UV-vis; format: physicochemical; conditions: pH 0.7, equimolar ligand and [M(arene)(H2O)3]2+
Method: The complex formation processes were followed in the absence of chloride ions, similar to our previous studies, to obtain comparative data. Time dependence of UV-vis spectra recorded for the equimolar solution of the ligand and [M(arene)(H2O)3]^2+ at pH 0.7 and 4.1 was followed. The charge-transfer band in the 340–500 nm region is a good indicator for complexation. […] The equilibration time decreased to <2 min for both RhCp* complexes at pH 4.1, while ~1.5 h was needed for the RuCym complexes, as it is shown in Figure S18. Although, in the isolated solid complexes, the neutral ligands are coordinated, in solution under this condition, the formation of complexes with the general formula [M(arene)(HQCl-D-(h)ProH−1)(H2O)]^+ is expected due to the deprotonation of the non-coordinating carboxyl group. In summary, these findings clearly indicate the high stability of the title complexes and the considerable difference in the rate of complex formation with the two types of metal ions.
Agilent Cary 8454 diode array spectrophotometer was utilized to obtain UV-vis spectra in the wavelength range 190–1100 nm. The path length (ℓ) was 1 cm in most cases (the actual ℓ is always indicated in the legends of the figures). The concentrations of the ligands and complexes were between 88 and 240 µM. […]

[4] = molecular target: T1, HSA site I (subdomain IIA) (Homo sapiens, UniProt P02768); test: Trp-214 quenching, spectrofluorometry; format: binding; conditions: cHSA = 1 µM, pH 7.4 (PBS’), λEX = 295 nm
T1 construct: purchased Sigma-Aldrich A8763
Method: (§4) Tryptophan (Trp-214) quenching and dansylglycine (DG) site marker displacement experiments were performed to calculate binding constants for site I and II, respectively, similar to our previous works.
(§5) Fluorescence measurements were carried out on a Fluoromax (Horiba Jobin Yvon, Longjumeau, France) spectrofluorometer using 1 cm × 1 cm quartz cuvette. Samples contained 1 µM HSA or 1 µM DG and 1 µM HSA, or 20 µM (nucleotide) ct-DNA and 5 µM EB, and the complex concentration was varied between 0 and 40 µM or 0 and 300 µM, respectively. Spectroscopic measurements were carried out on individually prepared samples. Excitation wavelengths were 295 nm for Trp-214 quenching, 340 nm for the DG displacement studies and 510 nm for the ct-DNA–EB system. The calculated conditional stability constants for HSA–complex species were obtained using the computer program HypSpec. Calculations always were based on data obtained from at least two independent measurements. Self-absorbance and inner filter effect had to be taken into account, and corrections were made as was described in our former works.

[5] = molecular target: T2, HSA site II (subdomain IIIA) (Homo sapiens, UniProt P02768); test: Dansylglycine (DG) site marker displacement, spectrofluorometry; format: binding; conditions: cHSA = 1 µM, cDG = 1 µM, pH 7.4 (PBS’)
T2 construct: purchased Sigma-Aldrich A8763
Method: as §4, §5

T2 sequence (P02768 25-609): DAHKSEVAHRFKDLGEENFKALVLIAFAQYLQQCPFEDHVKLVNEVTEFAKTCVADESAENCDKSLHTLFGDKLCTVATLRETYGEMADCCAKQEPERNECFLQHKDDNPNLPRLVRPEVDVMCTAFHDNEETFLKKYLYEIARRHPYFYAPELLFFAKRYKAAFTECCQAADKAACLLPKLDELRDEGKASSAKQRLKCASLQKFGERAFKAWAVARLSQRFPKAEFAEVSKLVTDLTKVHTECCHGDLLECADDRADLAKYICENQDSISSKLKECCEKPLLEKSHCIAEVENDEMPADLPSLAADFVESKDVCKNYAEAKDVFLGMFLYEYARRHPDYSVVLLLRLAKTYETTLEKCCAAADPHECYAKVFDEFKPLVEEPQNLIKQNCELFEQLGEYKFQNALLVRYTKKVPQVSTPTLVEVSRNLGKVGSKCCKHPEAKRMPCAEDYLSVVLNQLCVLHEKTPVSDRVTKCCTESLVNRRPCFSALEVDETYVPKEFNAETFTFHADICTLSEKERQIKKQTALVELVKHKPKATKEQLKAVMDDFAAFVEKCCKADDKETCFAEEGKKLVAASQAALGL
T1 sequence (P02768 25-609): as above

| SMILES | IC50 ([1]; Homo sapiens, MRC5, 72 h incubation) [µM] | IC50 [2] [µM] | IC50 ([1]; 72 h incubation) [µM] | time to reach complex formation equilibrium [3] | Trp-214 Quenching logKQ′, Site I [4] | DG Displacement logKDG′, Site II [5] |
| --- | --- | --- | --- | --- | --- | --- |
| O=C(O)[C@H]1CCCCN1Cc1cc(Cl)c2cccnc2c1O [HQCl-D-hPro, (R)-5-chloro-7-((homoproline-1-yl)methyl)8-hydroxyquinoline] | 3.63 ± 0.1 |  |  |  |  |  |
| Cc1c(C)c(C)[c-](C)c1C.O=C(O)[C@H]1CCC[NH+]1Cc1cc(Cl)c2cccnc2c1[O-].[Cl-].[Cl-].[Rh+3] [RhCp*–HQCl-D-Pro, [RhCp*(HQCl-D-Pro)Cl]Cl] |  | 34.3 ± 1 | 82.1 ± 5.1 | ~ 30 min | 5.6 ± 0.1 | 5.5 ± 0.1 |
| Cc1c(C)c(C)[c-](C)c1C.O=C(O)[C@H]1CCCC[NH+]1Cc1cc(Cl)c2cccnc2c1[O-].[Cl-].[Cl-].[Rh+3] [RhCp*–HQCl-D-hPro, [RhCp*(HQCl-D-hPro)Cl]Cl] |  | 18.9 ± 0.54 | 37.6 ± 2.3 | ~ 3 min | 5.6 ± 0.1 | 5.4 ± 0.1 |
| Cc1ccc(C(C)C)cc1.O=C(O)[C@H]1CCC[NH+]1Cc1cc(Cl)c2cccnc2c1[O-].[Cl-].[Cl-].[Ru+2] [RuCym–HQCl-D-Pro, [RuCym(HQCl-D-Pro)Cl]Cl] |  | > 100 | > 100 |  | 5.5 ± 0.1 | 5.6 ± 0.1 |
| Cc1ccc(C(C)C)cc1.O=C(O)[C@H]1CCCC[NH+]1Cc1cc(Cl)c2cccnc2c1[O-].[Cl-].[Cl-].[Ru+2] [RuCym–HQCl-D-hPro, [RuCym(HQCl-D-hPro)Cl]Cl] |  | > 100 | > 100 |  | 5.3 ± 0.1 | 5.7 ± 0.1 |
